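Results reflect a 48-hour exposure of cells in 96-well plates to compound at five concentrations. Abbreviation: GI50, concentration required for 50% inhibition of growth.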 Activity calls are given as the source filed them. Rule as the data show it: active = GI50 up to about 1.1 µM and inactive = higher.
How the values were obtained:
Assay in all cases: inhibition of tumour cell growth, NCI panel, 48 h
A498 = test system: A498
A549 = test system: A549
ACHN = test system: ACHN
CAKI-1 = test system: CAKI-1
CCRF-CEM = test system: CCRF-CEM
COLO 205 = test system: COLO 205
DLD-1 = test system: DLD-1
DMS-114 = test system: DMS-114
DMS-273 = test system: DMS-273
EKVX = test system: EKVX
HCC 2998 = test system: HCC 2998
HCT-116 = test system: HCT-116
HCT-15 = test system: HCT-15
HL-60 = test system: HL-60
HOP-62 = test system: HOP-62
HOP-92 = test system: HOP-92
HT-29 = test system: HT-29
IGROV-1 = test system: IGROV-1
K562 = test system: K562
KM-20L2 = test system: KM-20L2
KM12 = test system: KM12
LOX IMVI = test system: LOX IMVI
LXFL 529 = test system: LXFL 529
M14 = test system: M14
M19-MEL = test system: M19-MEL
MOLT-4 = test system: MOLT-4
NCI-H226 = test system: NCI-H226
NCI-H23 = test system: NCI-H23
NCI-H460 = test system: NCI-H460
NCI-H522 = test system: NCI-H522
OVCAR-4 = test system: OVCAR-4
OVCAR-5 = test system: OVCAR-5
OVCAR-8 = test system: OVCAR-8
RPMI-8226 = test system: RPMI-8226
RXF 393 = test system: RXF 393
RXF 631 = test system: RXF 631
SF-268 = test system: SF-268
SF-295 = test system: SF-295
SF-539 = test system: SF-539
SK-MEL-28 = test system: SK-MEL-28
SK-MEL-2 = test system: SK-MEL-2
SK-MEL-5 = test system: SK-MEL-5
SK-OV-3 = test system: SK-OV-3
SN12C = test system: SN12C
SNB-19 = test system: SNB-19
SNB-75 = test system: SNB-75
SNB-78 = test system: SNB-78
SR = test system: SR
SW-620 = test system: SW-620
TK-10 = test system: TK-10
U-251 = test system: U-251
UACC-257 = test system: UACC-257
UACC-62 = test system: UACC-62
UO-31 = test system: UO-31
XF498 = test system: XF498
786-0 = test system: 786-0
HOP-18 = test system: HOP-18
Malme-3M = test system: Malme-3M
OVCAR-3 = test system: OVCAR-3

Compound: COc1ccc(OC)c(NC(=O)C(=O)C(C(=O)c2ccccc2F)C2OC(=O)c3ccccc32)c1 (centres undefined)
- GI50 (A498): > 100 µM (inactive)
- GI50 (A549): 71.1 µM (inactive)
- GI50 (ACHN): 82.6 µM (inactive)
- GI50 (CAKI-1): 67.8 µM (inactive)
- GI50 (CCRF-CEM): 21.8 µM (inactive)
- GI50 (COLO 205): 48.3 µM (inactive)
- GI50 (DLD-1): 42 µM (inactive)
- GI50 (DMS-114): 20.8 µM (inactive)
- GI50 (DMS-273): 30.6 µM (inactive)
- GI50 (EKVX): 62.2 µM (inactive)
- GI50 (HCC 2998): 44.8 µM (inactive)
- GI50 (HCT-116): 37.3 µM (inactive)
- GI50 (HCT-15): 62.5 µM
- GI50 (HL-60): 34.8 µM (inactive)
- GI50 (HOP-62): 50.2 µM (inactive)
- GI50 (HOP-92): > 100 µM (inactive)
- GI50 (HT-29): 45.5 µM (inactive)
- GI50 (IGROV-1): 89.3 µM (inactive)
- GI50 (K562): 42.8 µM (inactive)
- GI50 (KM-20L2): 51.9 µM (inactive)
- GI50 (KM12): > 100 µM (inactive)
- GI50 (LOX IMVI): 25.2 µM (inactive)
- GI50 (LXFL 529): 77.3 µM (inactive)
- GI50 (M14): > 100 µM (inactive)
- GI50 (M19-MEL): 29.1 µM (inactive)
- GI50 (MOLT-4): 26.3 µM (inactive)
- GI50 (NCI-H226): 16.6 µM (inactive)
- GI50 (NCI-H23): 57.1 µM (inactive)
- GI50 (NCI-H460): 44.8 µM (inactive)
- GI50 (NCI-H522): 23.5 µM (inactive)
- GI50 (OVCAR-4): 66.8 µM (inactive)
- GI50 (OVCAR-5): 79.4 µM (inactive)
- GI50 (OVCAR-8): 35.1 µM (inactive)
- GI50 (RPMI-8226): 32.4 µM (inactive)
- GI50 (RXF 393): 25.5 µM (inactive)
- GI50 (RXF 631): 34.7 µM (inactive)
- GI50 (SF-268): 22.8 µM (inactive)
- GI50 (SF-295): 45.8 µM (inactive)
- GI50 (SF-539): 26.9 µM (inactive)
- GI50 (SK-MEL-28): 39.7 µM (inactive)
- GI50 (SK-MEL-2): 43.1 µM (inactive)
- GI50 (SK-MEL-5): 79.1 µM (inactive)
- GI50 (SK-OV-3): 59.4 µM (inactive)
- GI50 (SN12C): 35.9 µM (inactive)
- GI50 (SNB-19): 36 µM (inactive)
- GI50 (SNB-75): 39.7 µM (inactive)
- GI50 (SNB-78): 36.8 µM (inactive)
- GI50 (SR): 23.5 µM (inactive)
- GI50 (SW-620): 49.2 µM (inactive)
- GI50 (TK-10): > 100 µM (inactive)
- GI50 (U-251): 19.1 µM (inactive)
- GI50 (UACC-257): > 100 µM (inactive)
- GI50 (UACC-62): 36.4 µM (inactive)
- GI50 (UO-31): 50.6 µM (inactive)
- GI50 (XF498): 34.8 µM (inactive)

Compound: COCCOCC(=O)N(CCn1ccc(NC(c2ccccc2)(c2ccccc2)c2ccccc2)nc1=O)CCn1cnc2nc(N)[nH]c(=O)c21
- GI50 (786-0): > 100 µM (inactive)
- GI50 (A498): > 100 µM (inactive)
- GI50 (A549): > 100 µM (inactive)
- GI50 (ACHN): > 100 µM (inactive)
- GI50 (CAKI-1): > 100 µM (inactive)
- GI50 (CCRF-CEM): > 100 µM (inactive)
- GI50 (COLO 205): > 100 µM (inactive)
- GI50 (DLD-1): > 100 µM (inactive)
- GI50 (DMS-114): > 100 µM (inactive)
- GI50 (DMS-273): > 100 µM (inactive)
- GI50 (EKVX): > 100 µM (inactive)
- GI50 (HCC 2998): > 100 µM (inactive)
- GI50 (HCT-116): > 100 µM (inactive)
- GI50 (HCT-15): > 100 µM
- GI50 (HL-60): > 100 µM (inactive)
- GI50 (HOP-18): > 100 µM (inactive)
- GI50 (HOP-62): > 100 µM (inactive)
- GI50 (HOP-92): > 100 µM (inactive)
- GI50 (HT-29): > 100 µM (inactive)
- GI50 (IGROV-1): > 100 µM (inactive)
- GI50 (K562): > 100 µM (inactive)
- GI50 (KM-20L2): > 100 µM (inactive)
- GI50 (KM12): > 100 µM (inactive)
- GI50 (LOX IMVI): > 100 µM (inactive)
- GI50 (LXFL 529): > 100 µM (inactive)
- GI50 (M14): > 100 µM (inactive)
- GI50 (MOLT-4): > 100 µM (inactive)
- GI50 (Malme-3M): > 100 µM (inactive)
- GI50 (NCI-H226): > 100 µM (inactive)
- GI50 (NCI-H23): > 100 µM (inactive)
- GI50 (NCI-H460): > 100 µM (inactive)
- GI50 (OVCAR-3): > 100 µM (inactive)
- GI50 (OVCAR-4): > 100 µM (inactive)
- GI50 (OVCAR-5): > 100 µM (inactive)
- GI50 (OVCAR-8): > 100 µM (inactive)
- GI50 (RPMI-8226): > 100 µM (inactive)
- GI50 (RXF 393): > 100 µM (inactive)
- GI50 (RXF 631): > 100 µM (inactive)
- GI50 (SF-268): > 100 µM (inactive)
- GI50 (SF-295): > 100 µM (inactive)
- GI50 (SF-539): > 100 µM (inactive)
- GI50 (SK-MEL-28): > 100 µM (inactive)
- GI50 (SK-MEL-2): > 100 µM (inactive)
- GI50 (SK-MEL-5): > 100 µM (inactive)
- GI50 (SN12C): > 100 µM (inactive)
- GI50 (SNB-75): > 100 µM (inactive)
- GI50 (SNB-78): > 100 µM (inactive)
- GI50 (SR): > 100 µM (inactive)
- GI50 (SW-620): > 100 µM (inactive)
- GI50 (TK-10): > 100 µM (inactive)
- GI50 (U-251): > 100 µM (inactive)
- GI50 (UACC-257): > 100 µM (inactive)
- GI50 (UACC-62): > 100 µM (inactive)
- GI50 (UO-31): > 100 µM (inactive)

Source: ChEMBL document CHEMBL1201862, “PubChem BioAssay data set” (2004)
